Assay results: article PMC9227536, “Prediction of Pharmacokinetics of IDP-73152 in Humans Using Physiologically-Based Pharmacokinetics” (Pharmaceutics, 2022)

What was measured:
Format in all cases: in vitro ADME
[1] = Unbound fraction in hepatocyte incubation, rat; details: hepatocytes (hepatocyte incubation mixture), rats hepatocyte incubation, read-out: fu,hep
Procedure: The unbound fractions of IDP-73152 in various matrices were measured according to the manufacturer’s instructions for the rapid equilibrium dialysis (RED) device (ThermoFisher Scientific, Waltham, MA, USA). Briefly, IDP-73152 was added to the plasma or the microsomal/hepatocyte incubation buffer from various species (i.e., mouse, rat, dog, and human for microsomal incubation; rat for hepatocyte incubation) to obtain final concentrations of the compound at 0.3, 1, and 3 μM. After the membrane insert was placed in the RED plate, the solution containing IDP-73152 was added (400 µL) to the sample chamber, and the dialysis buffer (600 μL) was added to the buffer chamber. The RED plate was sealed with parafilm and then incubated at 37 °C in the orbital shaker (Lab Companion, Daejeon, Korea) at 100 rpm for 5 h. After a 50 μL aliquot was aspirated from both the sample and buffer chambers, an equal volume of protein-free buffer or blank medium was replaced in the aspirated sample or buffer to render the matrices compositionally identical. The IDP-73152 concentration in the buffer/sample chambers (i.e., CBuffer Chamber and CSample Chamber) was determined by an assay. Thus, the fraction unbound was defined as:(2) % Fraction unbound=(CBuffer Chamber/CSample Chamber)×100%

[2] = Blood partitioning (LC-MS/MS-based depletion method), dog; details: whole blood, dogs blood, 0.3, 1, 3 μM, read-out: BP (blood-to-plasma concentration ratio)
Procedure: In this study, the partitioning of IDP-73152 in blood samples obtained from mice, rats, dogs, and humans was determined using the LC-MS/MS-based depletion method with slight modifications. DP-73152 was added to an aliquot (1 mL) of blank blood or plasma at a final concentration of 0.3, 1, or 3 μM. The mixture was incubated at 37 °C in a water bath for 60 min. After the incubation, the plasma was separated by centrifugation of the blood samples for 5 min at 10,000× g/4 °C and stored at -80 °C until analysis. The blood-to-plasma concentration ratio (BP) was calculated using the equation:(3) BP=[…], where […] is the concentration of the compound at the corresponding blood concentration in the plasma, and CPL is the concentration from the plasma sample separated from the incubated blood.

[3] = Metabolic stability in liver microsomes, human
Procedure: In this study, the metabolic stability of IDP-73152 in microsomes from mice, rats, dogs, and humans, as well as rat hepatocytes, was determined. For a microsomal incubation study, the incubation mixtures, containing mouse, rat, dog, or human liver microsomes at a protein concentration of 0.5 mg/mL, 3.3 mM MgCl2, and 1.3 mM NADPH, in a 100 mM potassium phosphate buffer (pH 7.4), were preincubated for 3 min at 37 °C. In parallel, a control incubation mixture (i.e., identical composition to that of the incubation mixture without NADPH) was also prepared for comparison. The reaction was initiated by the addition of a 10 × solution of IDP-73152 (final concentration in mixtures of 1 μM) to the incubation mixtures or the control incubation mixtures. The mixtures were incubated in a shaking water bath (37 °C, 90 rpm). Aliquots (30 μL) were collected at 0, 15, 30, and 45 min from the mixture and the reaction was terminated by the addition of a 4-fold volume of ice-cold acetonitrile to the sample. The mixture was then vortexed for 5 min and centrifuged for 10 min at 10,000× g. The supernatant was collected and stored at -80 °C until the analysis. For the hepatocyte incubation study, rat hepatocytes were freshly prepared using the two-step collagenase perfusion method with slight modifications. After the isolation, cell viability during the preparation process was first determined by a trypan blue exclusion assay prior to the stability study. The preparation was considered adequate for subsequent studies if the viability was greater than 80%. When appropriate, the hepatocytes were resuspended in Williams' media E containing 10% fetal bovine serum, 1% penicillin-streptomycin, and 0.01% insulin-transferrin-selenium (i.e., 10 mg/mL insulin, 5.5 mg/mL transferrin, and 5 mg/mL selenium) at pH 7.4. The reaction was carried out with the hepatocyte suspension prepared at 1 × 10^6 cells/mL (0.5 mL) and initiated by the addition of equal volume of IDP-73152 solution (i.e., final concentration of the compound at 1 μM in 0.5 × 10^6 cells/mL of hepatocytes) to the hepatocyte suspension. […] Assuming first-order disappearance kinetics, the slope k of the logarithmically transformed IDP-73152 concentration in the sample versus time plot was determined by the linear regression analysis of the data. The total intrinsic clearance (CLint,mic, μL/min/mg protein for microsomal incubation study and CLint,hep, μL/min/million cells for hepatocytes incubation study) was then calculated using the following equations:(4) CLint, mic=k×Volume of incubation medium (μL)/Protein in incubation medium (mg) (5) CLint,hep=k×Volume of incubation (μL)/Number of cells in incubation (×10^6) The unbound intrinsic clearance, with respect to the whole liver ([…]), was then estimated for the two cases. […]

CC(C)(C)[C@H](NC(=O)[C@H](CC1CCCC1)CN(O)C=O)C(=O)N1CCC(NCc2cc(F)c(F)cc2F)CC1 [IDP-73152]
fraction unbound at 5 h [1]: 0.492 ± 0.068 | blood plasma ratio at 60 min [2]: 1.45 ± 0.11 | CLhep predicted at 1 μM ([3]; human, liver microsomes, pH 7.4, humans, from microsomal stability data, well-stirred liver model, read-out: CLp expected in humans (converted)): ~3.17 mL/min/kg | microsomal CLint at 1 μM ([3]; human, microsomes, pH 7.4): 31.8 ± 2.2 µL/min/mg | hepatic ER (extraction ratio) ([3]; humans, from microsomal clearance, well-stirred model): 0.159 ± 0.009 | CLu,int,H ([3]; humans, scaled up to the whole liver from microsomes): 206 ± 14 L/h
